Experimental data from patent US8507526B2, “4- [2- (4-methylphenylsulfanyl) phenyl] piperidine for the treatment of irritable bowel syndrome (IBS)” (H. Lundbeck A/S, priority 2007, dated 2013).

System: chronic constriction nerve injury, peripheral mononeuropathy
Experiment: Chronic constriction nerve injury model of neuropathic pain (Von Frey filaments, Hargreaves Plantar Device)
Assay type: in vivo
Conditions: rats
Text: A peripheral mononeuropathy was induced in the right hind limb of rats following a chronic constriction nerve injury, and the development of mechanical allodynia and thermal hyperalgesia was monitored using established behavioural tests (Von Frey filaments and the Hargreaves Plantar Device, respectively).

Cc1ccc(Sc2ccccc2C2CCNCC2)cc1 [Compound I, 4-[2-(4-methylphenylsulfanyl)phenyl]piperidine]
paw withdrawal threshold, Von Frey filaments (mechanical allodynia) (subcutaneous 1.9, 4.8 and 7.9 mg/kg in 10% hydroxypropyl-betacyclodextrin, right hind paw): did not increase the paw withdrawal threshold | paw withdrawal latency, thermal hyperalgesia (Hargreaves Plantar Device) (subcutaneous 4.8 and 7.9 mg/kg): significant increases in paw withdrawal latency
